Measured values as given in patent publication US6004952A, “Micacocidin derivatives” (Shinogi & Co., Ltd., priority 1996, dated 1999).
In brackets after ≈: the same amount, converted by molar mass. Like-named read-outs stand apart in the source and are kept apart here.

What was measured:
[1] = tested on: Eimeria tenella; assay: Growth inhibition activities to avian coccidium in primary chicken kidney cells; assay type: cell-based; settings: for minimal effective concentration: Eimeria tenella
Method: The kidneys of SPF new born chicken was sterilely removed, which was treated with trypsin and the resultant primary kidney cells were cultured in 24-well plate. Monolayer culture after cultured for 3 days was treated simultaneously with compounds adjusted to predetermined concentration and sporozoit obtained by artificial excystation, which was cultured a 40° C. Premature and mature schizonts were observed under microscope, and the growth inhibition activities (suppression rate) for each treatment group were calculated at a proportion of the number of schizonts for the sporozoit-inoculated, compound-untreated control group (100%).

[2] = tested on: S. aureus; assay: MIC, agar dilution method, S. aureus; assay type: cell-based; settings: Staphylococcus aureus, FDA209P; S. aureus FDA 209P
[3] = tested on: Mycoplasma; assay: MIC to Mycoplasmas (summary in words); assay type: cell-based
[4] = tested on: Serpulina hyodysenteriae; assay: MIC, agar dilution method, anaerobic, Serpulina hyodysenteriae; assay type: cell-based, S. hyodysenteriae ATCC 27164; settings: for MIC: Brachyspira hyodysenteriae, ATCC27164
[5] = tested on: mice spleen cells; assay: Suppression of reaction of mice spleen cells to lypopolysaccaride (LPS), in vitro (MTT); assay type: cell-based, BDF1 mice; settings: for inhibition at 0.312 µg/mL: 312 ng/ml; for inhibition at 0.625 µg/mL: 625 ng/ml
Method: (§1) To each well of 96 well microtiter plate were added 5×10^5 spleen cells of BDF1 mice suspended in 0.1 ml of RPMI 1640 medium supplemented with 10% bovine fetus serum (supplemented with 2 mM sodium hydrogen carbonate, 50 Units/ml of penicillin, 50 μg/ml of streptomycin, and 5×10^-5 M of 2-mercaptoethanol), and then, 5 μg/ml of Concanavalin A (Con A) or 10 μg/ml of lypopolysaccaride (LPS) and various concentrations of test substance, of which final volume was adjusted to 0.2 ml. Test substances were dissolved in dimethylsulfoxide (DMSO), diluted with RPMI 1640 stated above, and added to the wells so that final concentration of the substances becomes less than 10000 ng/ml. The 96-well microtiter plates were cultured at 37° C. for 3 days in an incubator which was maintained at the humidity of 100%, 5% of carbon dioxide and 95% of air. After cultivation is completed, […] of 6 mg/ml solution of MTT {3-(4,5-dimethylthiazol-2yl)-2,5 diphenyltetrazoliumbromide} (Sigma) is added to each well, which is cultured at 37° C. for […] under the same conditions. After cultivation is completed, formazan formed is dissolved by adding 50 μl of a solution of 20% dodecyl sodium sulfonate (SDS) in 0.02N hydrochloric acid and kept standing at 37° C. for 24 hours. The absorbance (OD) of the formazan which was produced in proportion to the number of alive cells, was determined by using immunoreader equipped with 570 nm filter (see The Journal of Immunological Methods, Vol.65, 55-63, 1983).
(§2) Cell growth inhibition rate and IC50 value were calculated according to the correlation between the concentration and the absorbance for each substance.

[6] = tested on: Clostridium perfringens; assay: microbe, parasite or virus in culture; assay type: cell-based, C. perfringens ATCC 13124; settings: for MIC: Clostridium perfringens, ATCC13124
[7] = Cytotoxicity to primary chicken kidney culture cells; assay type: cell-based; settings: primary chicken kidney cells
[8] = tested on: primary kidney culture cells; assay: as above; assay type: cell-based; settings: at the same concentration
[9] = tested on: mice spleen cells; assay: Suppression of reaction of mice spleen cells to Concanavalin A, in vitro (MTT); assay type: cell-based, BDF1 mice; settings: for inhibition at 0.312 µg/mL: 312 ng/ml; for inhibition at 0.625 µg/mL: 625 ng/ml
Method: as §1, §2

[10] = tested on: M. pneumoniae; assay: MIC, liquid dilution method, Mycoplasma pneumoniae; settings: Mycoplasmoides pneumoniae
[11] = tested on: M. gallisepticum; assay: MIC, liquid dilution method, Mycoplasma gallisepticum; settings: Mycoplasmoides gallisepticum
[12] = tested on: M. hyopneumoniae; assay: MIC, liquid dilution method, Mycoplasma hyopneumoniae; settings: Mesomycoplasma hyopneumoniae
[13] = tested on: Branhamella catarrhalis; assay: MIC, Branhamella catarrhalis; assay type: cell-based; settings: Moraxella catarrhalis; B. catarrhalis A 25238
Method: Thus, sensitivity-disc medium (Nissui) was used as a sensitivity determination medium, to which about 1 μl of 10^6 CFU/ml of the bacterial suspension was inoculated.

[14] = tested on: E. avium; assay: MIC, agar dilution method, E. avium; settings: Enterococcus avium
[15] = tested on: M. gallisepticum; assay: In vivo evaluation test for M. gallisepticum in chickens (air-sac lesions); settings: 6 chickens tested
[16] = tested on: C. trachmatis; assay: MIC, C. trachmatis; assay type: cell-based; settings: C. trachmatis D/UW-3/CX
[17] = tested on: Aspergillus fumigatus; assay: Antifungal activity, micro-liquid dilution method, Aspergillus fumigatus; assay type: cell-based, Aspergillus fumigatus strain MA; settings: 30° C.; for Antifungal activities: IC50: 24 hours; for IC50: Aspergillus fumigatus, 24 h, read-out: Antifungal activities: IC50
Method: (§3) Antifungal activities of the compounds to Candida albicans (strain Ca-15) and Asperilhm fumigatus (strain MA), representative pathogenic fungi, were determined by micro-liquid dilution method using 96-well microplates. A fungal suspension stored under freezing was adjusted to 1×1 O^5 CFU/ml by medium, of which 100 μl portions were charged into each well. The compound of the present invention was dissolved in dimethylsulfoxide (DMSO). Using the resultant solution, 2-fold dilution series were prepared together with the fungal suspension charged into the wells. YNB medium and RPMI medium were used. After cultured for 24 hours at 30° C., evaluation was performed by detecting the turbidity (wave length: 595 nm) using microplate reader.

[18] = tested on: Candida albicans; assay: Antifungal activity, micro-liquid dilution method, Candida albicans; assay type: cell-based, Candida albicans strain Ca-15; settings: 30° C.; for Antifungal activities: IC50: 24 hours; for IC50: Candida albicans, 24 h, read-out: Antifungal activities: IC50
Method: as §3

[19] = more than 80% of suppression rate regarded as effective, read-out: Effective dose (growth inhibition)
[20] = read-out: Concentrations showing growth inhibition effects
[21] = Mus musculus, 72 h, LPS, read-out: Suppression rate
[22] = Mus musculus, 72 h, Con A, read-out: Suppression rate

SMILES	growth inhibition activities [1]	minimal effective concentration [1, 19] [µg/mL]	minimal effective concentration [1, 20] [µg/mL]	MICs to Mycoplasmas [3]	activity to Serpulina (Treponema) hyodysenteriae [4]	MIC [4] [µg/mL]	suppression of the reaction to LPS of spleen cells [5]	inhibition at 0.312 µg/mL [5, 21] [%]	inhibition at 0.625 µg/mL [5, 21] [%]	IC50 ([5]; Mus musculus, LPS) [µg/mL]	activity to Clostridium perflingens [6]	MIC [6] [µg/mL]	MCC [7] [µg/mL]	cytotoxicity to the primary kidney culture cells [8]	suppression of the reaction to Con A of spleen cells [9]	inhibition at 0.312 µg/mL [9, 22] [%]	inhibition at 0.625 µg/mL [9, 22] [%]	MIC [10] [µg/mL]	MIC [11] [µg/mL]	MIC [12] [µg/mL]	further results
CCCCCc1cccc(OC)c1C1=NC(C2SCC(C(O)C(C)(C)C3=NC(C)(C(=O)O)CS3)N2C)CS1 (stereo not drawn) [Compound 7]	strong growth inhibition activities	0.156	156	low MICs	showed the activity	1.56 (≈ 2.69 µM)	suppressed	98.6	102	0.084 (≈ 0.145 µM)	showed the activity	0.1 (≈ 0.172 µM)	10	did not show any cytotoxicity	suppressed	98	101	0.1 (≈ 0.172 µM)	1.56 (≈ 2.69 µM)	0.1 (≈ 0.172 µM)	MIC [2]: 1.56 µg/mL (≈ 2.69 µM); inhibition at 0.039 µg/mL ([5]; Mus musculus, 72 h, LPS, 39 ng/ml, read-out: Suppression rate): 17.2%; inhibition at 0.078 µg/mL ([5]; Mus musculus, 72 h, LPS, 78 ng/ml, read-out: Suppression rate): 42.5%; inhibition at 0.156 µg/mL ([5]; Mus musculus, 72 h, LPS, 156 ng/ml, read-out: Suppression rate): 80%; inhibition at 0.039 µg/mL ([9]; Mus musculus, 72 h, Con A, 39 ng/ml, read-out: Suppression rate): 10%; inhibition at 0.078 µg/mL ([9]; Mus musculus, 72 h, Con A, 78 ng/ml, read-out: Suppression rate): 16.5%; inhibition at 0.156 µg/mL ([9]; Mus musculus, 72 h, Con A, 156 ng/ml, read-out: Suppression rate): 60.7%; IC50 ([9]; Mus musculus, Con A): 0.129 µg/mL (≈ 0.222 µM)
CCCCCc1cccc(O)c1C1=NC(C2SCC(C(O)C(C)(C)C3=NC(C)(C(=O)O)CS3)N2C)CS1 (stereo not drawn) [Compound 9]	–	–	–	–	–	–	–	–	–	–	–	–	–	–	–	–	–	0.00625 (≈ 0.011 µM)	0.2 (≈ 0.353 µM)	0.025 (≈ 0.0442 µM)	MIC [13]: 3.13 µg/mL (≈ 5.53 µM); MIC [14]: 1.56 µg/mL (≈ 2.76 µM); air-sac lesions (the number of chickens): (+) slight ([15]; 25 mg/kg × 1, orally): 0; air-sac lesions (the number of chickens): (++-+++) moderate to severe ([15]; 25 mg/kg × 1, orally): 2; air-sac lesions (the number of chickens): (-) non ([15]; 25 mg/kg × 1, orally): 4; number of chickens having lesions ([15]; 25 mg/kg × 1, orally): 2; air-sac lesions (the number of chickens): (+) slight ([15]; 50 mg/kg × 1, orally): 1; air-sac lesions (the number of chickens): (++-+++) moderate to severe ([15]; 50 mg/kg × 1, orally): 1; air-sac lesions (the number of chickens): (-) non ([15]; 50 mg/kg × 1, orally): 4; number of chickens having lesions ([15]; 50 mg/kg × 1, orally): 2; air-sac lesions (the number of chickens): (+) slight ([15]; 100 mg/kg × 1, orally): 0; air-sac lesions (the number of chickens): (++-+++) moderate to severe ([15]; 100 mg/kg × 1, orally): 1; air-sac lesions (the number of chickens): (-) non ([15]; 100 mg/kg × 1, orally): 5; number of chickens having lesions ([15]; 100 mg/kg × 1, orally): 1; MIC [16]: 16 µg/mL (≈ 28.3 µM); Antifungal activities: IC50 ([17]; RPMI medium): 0.2 µg/mL; Antifungal activities: IC50 ([17]; YNB medium): 3.2 µg/mL; Antifungal activities: IC50 ([18]; RPMI medium): 1.6 µg/mL; Antifungal activities: IC50 ([18]; YNB medium): 6.3 µg/mL
CCCCCc1cccc(O)c1C1=NC(C2SCC(C(OCOC)C(C)(C)C3=NC(C)(C(=O)OCOC)CS3)N2C)CS1 (stereo not drawn) [Compound 19]	strong growth inhibition activities	0.156	156	–	–	–	–	–	–	–	–	–	10	did not show any cytotoxicity	–	–	–	0.39 (≈ 0.596 µM)	6.25 (≈ 9.56 µM)	1.56 (≈ 2.39 µM)	–
CCCCCc1cccc(O)c1C1=NC(C2SCC(C(O)C(C)(C)C3=NC(C)(C(=O)OCOC)CS3)N2C)CS1 (stereo not drawn) [Compound 20]	–	0.625	–	low MICs	showed the activity	1.56 (≈ 2.56 µM)	suppressed	2.1	98.8	0.38 (≈ 0.623 µM)	showed the activity	3.13 (≈ 5.13 µM)	> 10	–	suppressed	0	102	≤ 0.00625	0.1 (≈ 0.164 µM)	0.025 (≈ 0.041 µM)	inhibition at 1.25 µg/mL ([5]; Mus musculus, 72 h, LPS, 1250 ng/ml, read-out: Suppression rate): 98.2%; inhibition at 2.5 µg/mL ([5]; Mus musculus, 72 h, LPS, 2500 ng/ml, read-out: Suppression rate): 96.3%; inhibition at 1.25 µg/mL ([9]; Mus musculus, 72 h, Con A, 1250 ng/ml, read-out: Suppression rate): 101%; inhibition at 2.5 µg/mL ([9]; Mus musculus, 72 h, Con A, 2500 ng/ml, read-out: Suppression rate): 101%; IC50 ([9]; Mus musculus, Con A): 0.506 µg/mL (≈ 0.83 µM); IC50 ([17]; RPMI medium): > 100 µg/mL; IC50 ([17]; YNB medium): > 100 µg/mL; IC50 ([18]; RPMI medium): 3.2 µg/mL (≈ 5.25 µM); IC50 ([18]; YNB medium): > 100 µg/mL
